The values below are quoted from earlier work in US11883378B2, “Hydrogel formulations and methods and devices for focal administration of the same” (Pykus Therapeutics, Inc., priority 2021, dated 2024).

Converted amounts (≈) assume the structure as drawn.

In data set [1] the test system is VEGF.
Sequence of VEGF (P15692 207-311 limits assumed): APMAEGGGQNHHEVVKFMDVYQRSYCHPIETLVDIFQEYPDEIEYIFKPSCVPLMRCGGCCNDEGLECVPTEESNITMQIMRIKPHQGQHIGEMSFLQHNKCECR

For the compound `C=CC[C@@H]1/C=C(\C)C[C@H](C)C[C@H](OC)[C@H]2O[C@@](O)(C(=O)C(=O)N3CCCC[C@H]3C(=O)O[C@H](/C(C)=C/[C@@H]3CC[C@@H](O)[C@H](OC)C3)[C@H](C)[C@@H](O)CC1=O)[C@H](C)C[C@@H]2OC` [Tacrolimus], the solubility in water is ~1 µg/mL (≈ 1.24 µM).

With “Bevacizumab: anti-VEGF monoclonal antibody (large protein) with a molecular weight of ~150 kD”, in data set [1] (dose of 1.25 mg), the “tolerability of intravitreal injection” value is on record as “well tolerated”. For the same compound, the “effective dose in the vitreous” value in data set [1] (maintained by monthly repetitive intravitreal injections) was ~1 µg/mL.
